Tests used:
EBP = target: T1, EBP (Mus musculus, UniProt P70245); assay: GC/MS-based sterol profiling in EpiSC-derived OPCs (EBP inhibition); format: cell-based
T1 construct: endogenous in cells; host or cells: mouse EpiSC-derived oligodendrocyte progenitor cells (EpiSC5 line)
T1 sequence (P70245 1-230): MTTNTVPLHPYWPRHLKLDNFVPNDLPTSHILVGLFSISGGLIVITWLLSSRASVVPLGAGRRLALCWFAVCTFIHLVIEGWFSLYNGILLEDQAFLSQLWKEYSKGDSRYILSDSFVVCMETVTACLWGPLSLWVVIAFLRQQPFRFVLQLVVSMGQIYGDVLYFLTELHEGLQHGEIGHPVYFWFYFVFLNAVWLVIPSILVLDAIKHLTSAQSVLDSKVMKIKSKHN
Description: EpiSC-derived OPCs were plated at one million cells per well in PDL- and laminin-coated six well plates with differentiation media. After 24 hours, cells were dissociated with Accutase, rinsed with saline, and cell pellets were frozen. For sterol analyses, cells were lysed in methanol (Sigma-Aldrich) with agitation for 30 minutes and cell debris removed by centrifugation at 10,000 rpm for 15 min. Cholesterol-d7 standard (25,26,26,26,27,27,27-^2H7-cholesterol, Cambridge Isotope Laboratories) was added before drying under nitrogen stream and derivatization with 55 al of bis(trimethylsilyl)trifluoroacetamide/trimethylchlorosilane to form trimethylsilyl derivatives. Following derivatization at 60° C. for 20 minutes, 1 μl was analyzed by gas chromatography/mass spectrometry using an Agilent 5973 Network Mass Selective Detector equipped with a 6890 gas chromatograph system and a HP-5MS capillary column ([…]). Samples were injected in splitless mode and analyzed using electron impact ionization. Ion fragment peaks were integrated to calculate sterol abundance, and quantitation was relative to cholesterol-d7. The following m/z ion fragments were used to quantitate each metabolite: cholesterol-d7 (465), FF-Mas (482), cholesterol (368), zymostenol (458), zymosterol (456), desmosterol (456, 343), 7-dehydrocholesterol (456, 325), lanosterol (393), lathosterol (458), 14-dehydrozymostenol (456). […] After derivatization, 1 al was analyzed by gas chromatography/mass spectrometry using an Agilent 5973 Network Mass Selective Detector equipped with a 6890 gas chromatograph system and a HP-5MS capillary column ([…]). Samples were analyzed in full scan mode using electron impact ionization; ion fragment peaks were integrated to calculate sterol abundance, and quantitation was relative to cholesterol-d7. The following ion fragments were used to quantitate each metabolite: cholesterol-d7 (465), cholesterol (368)(Sigma Aldrich), zymostenol (458), All standards were obtained from Avanti Polar Lipids unless otherwise indicated. […]

human EBP = target: T2, human EBP (Homo sapiens, UniProt Q15125); assay: Zymostenol level in human cortical spheroids (on-target EBP inhibition); format: cell-based; conditions: 100 nM, versus DMSO
T2 construct: endogenous in cells; host or cells: human cortical spheroids derived from pluripotent stem cells

[1] = 100 nm, 24 hours, versus DMSO control

T2 sequence (Q15125 whole entry): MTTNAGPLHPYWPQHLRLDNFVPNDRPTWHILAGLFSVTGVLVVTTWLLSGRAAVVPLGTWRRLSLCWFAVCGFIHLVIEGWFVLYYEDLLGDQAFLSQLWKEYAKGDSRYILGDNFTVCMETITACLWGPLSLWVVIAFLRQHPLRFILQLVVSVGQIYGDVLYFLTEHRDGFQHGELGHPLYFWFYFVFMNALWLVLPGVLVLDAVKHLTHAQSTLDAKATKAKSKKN

- zymostenol in mouse OPCs (FIG. 5) (EBP; 10 nM, 30 nM, 100 nM): accumulate zymostenol
- cholesterol in OPCs (FIG. 1B) (EBP; [1]): produce lesser amounts of cholesterol
- zymostenol in OPCs (FIG. 1B) (EBP; [1]): accumulate zymostenol
- zymostenol in human cortical spheroid cells (FIG. 6) (human EBP): accumulation of EBP substrate zymostenol
Compound: CCN(C/C=C\c1ccc(C2CCCCC2)c(Cl)c1)C1CCCCC1 [Cis-N-cyclohexyl-N-ethyl-3-(3-chloro-4-cyclohexylphenyl)prop-2-enylamine]

Source: patent publication US10918610B2, “Compounds and methods of promoting myelination” (Case Western Reserve University, priority 2017, dated 2021)
